Test in all cases: relative viability (nuclei count vs DMSO), 5 days (fraction); higher = more cells survive
Compound in assay [1]: CC1=CC=C(C=C1)C(=O)CN2C3=C(CCCC3)SC2=N [Pifithrin_alpha] + O=C(CCCCCCC(=O)Nc1ccccc1)NO [Vorinostat] (partner 1 µM)
The gist of the method: (§1)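 Relative viability is defined as nuclei in treated wells over nuclei in vehicle wells. Duplicate plates were run and medians reported. Lung cancer cell lines in 1536-well plates were dosed by pin tool one day after seeding, with one drug or with a fixed anchor-drug dose plus five library-drug doses (not always all listed) in √10 steps, and nuclei were counted after 5 days.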

Compound in the assay “Axitinib + Bortezomib”: CNC(=O)c1ccccc1Sc1ccc2c(/C=C/c3ccccn3)n[nH]c2c1 [Axitinib] + CC(C)C[C@H](NC(=O)[C@H](Cc1ccccc1)NC(=O)c1cnccn1)B(O)O [Bortezomib] (partner 0.002 µM)
The gist of the method:
as §1

Compound in the assay “Axitinib + Phenformin”: CNC(=O)c1ccccc1Sc1ccc2c(/C=C/c3ccccn3)n[nH]c2c1 [Axitinib] + N=C(N)NC(=N)NCCc1ccccc1 [Phenformin] (partner 250 µM)
In short, it runs like this:
as §1

Compound in the assay “Bemcentinib + AZD7762”: Nc1nc(Nc2ccc3c(c2)CC[C@@H](N2CCCC2)CC3)nn1-c1cc2c(nn1)-c1ccccc1CCC2 [Bemcentinib] + NC(=O)Nc1cc(-c2cccc(F)c2)sc1C(=O)N[C@H]1CCCNC1 [AZD7762] (partner 0.2 µM)
In short, it runs like this: as §1

For 1 cell line, relative viability results are on record in the supplement of paper PMC10307832.

In the case of NCI-H650, the relative viability in assay [1] (first compound 3.162 µM) came to 0.439; in assay [1] (first compound 10 µM), 0.395; in assay [1] (first compound 31.62 µM) it was 0.305; in assay [1] (first compound 100 µM), 0.399; in the assay with Axitinib + Bortezomib (first compound 0.005 µM) it was 0.739; in the assay with Axitinib + Bortezomib (first compound 0.01581 µM), 0.944. The relative viability with Axitinib + Bortezomib (first compound 0.05 µM) turned out to be 0.683; in the assay with Axitinib + Bortezomib (first compound 0.1581 µM), 0.7; with Axitinib + Bortezomib (first compound 0.5 µM), 0.816; with Axitinib + Phenformin (first compound 0.005 µM), 0.462; with Axitinib + Phenformin (first compound 0.01581 µM), 0.434; in the assay with Axitinib + Phenformin (first compound 0.05 µM) it was 0.483. Moreover, the relative viability came to 0.424 with Axitinib + Phenformin (first compound 0.1581 µM); 0.471 in the assay with Axitinib + Phenformin (first compound 0.5 µM); 0.956 in the assay with Bemcentinib + AZD7762 (first compound 0.04 µM); 0.964 with Bemcentinib + AZD7762 (first compound 0.1265 µM); 1.15 with Bemcentinib + AZD7762 (first compound 0.4 µM); 0.886 with Bemcentinib + AZD7762 (first compound 1.265 µM). Besides, the relative viability with Bemcentinib + AZD7762 (first compound 4 µM) was determined as 1.17.
